# Experimental data published in patent EP2359864B1, “Targeting Vector-Phospholipid Conjugates” (Bracco Suisse SA, priority 2005, dated 2019).
# Read-outs that look alike come from different tables or passages of the source. Numbered stars: 1 amine (or outer) side, 2 acyl side, 3 side chain; on linkers, the order of the positions; unused ones are H or OH. Side chains are listed from the residue outwards. * marks the point of attachment. DSPE = CCCCCCCCCCCCCCCCCC(=O)OC[C@H](COP(=O)(O)OCCN*)OC(=O)CCCCCCCCCCCCCCCCC; Glutaryl = O=C(CCCC(=O)[*:2])[*:1]
# Experiments:
# KDR [1] = conditions: as shown in co-pending U.S. Application No. 10/661,156; cited from earlier work
# [2] = tested on: KDR receptor expressed on the endothelium of neovessels; experiment: In vivo ultrasound imaging of KDR-targeted contrast agents, rabbit VX2 tumor model; parameters: species or system New Zealand rabbits; conditions: confirmed using echographic examination of VX2 tumors in rabbits
# Description: The ability of ultrasound contrast agents containing KDR binding lipopeptides of the invention to bind to KDR-expressing tissue in vivo was assessed using a known model of angiogenesis: the rabbit VX2 tumor model.
# A known model of angiogenic tissue was used to examine the ability of the KDR-targeted ultrasound microbubbles to localize to and provide an image of angiogenic tissue. The VX2 rabbit carcinoma was serially implanted in the dorsal muscle of New Zealand rabbits (Charles River Laboratories, France) weighting 2.5/3kg.
# Tumor was surgically removed, placed into McCoy's culture medium containing 10% fetal calf serum, antibiotics, 1.5 mM Glutamax I and cut into small pieces that were rinsed to remove blood and debris. Then tumor pieces (3 to 5 cm^3) were placed in a 50 ml Falcon tube containing 5 mL of complete medium. The tumor tissue was ground (Polytron) until no more solid pieces were visible. The murky fluid was centrifuged for 5 minutes at 300g and the supernatant discarded. Seven mL of fresh medium was added per 5 mL of pellet.
# Rabbits received first 0.3 mL of Vetranquil (Acepromazine, Sanofi, injected intramuscularly) and were then anesthetized with an intramuscular injection of Ketaminol®5/Xylazine (Veterinaria AG/Sigma) mixture (50/10 mg/mL, 0.7 mL/kg). One hundred microliters of VX2 tumor homogenate was injected intramuscularly. Fifteen days after implantation of VX2 tumors, animals were anesthetized again with the same mixture, plus subcutaneous injection of 50% Urethane (2mL/kg, s.c.) (Sigma) for imaging experiments. […]
# After bubble injection (0.1 µL/kg of gas) using the preparations of either Example 16 or Example 17, insonation was stopped allowing bubbles to accumulate for 25 minutes. […] The amount of free circulating bubbles was then assessed by recording the signal obtained after 20 sec accumulation without insonation. Video frames from VX2 tumor imaging experiments were captured with video-capture and analysed with Image-Pro Plus 2.0 software. […]
# KDR [3] = experiment: Binding affinity of peptide monomers to KDR (statement only); conditions: statement in the description, no data shown
# [4] = Storage stability: formation of lyso- compound (analytical HPLC); assay type: physicochemical; conditions: after 5 days at room temperature; material after Zorbax C-3 preparative HPLC
# Description: The present invention provides methods for producing dimeric peptide-phospholipid conjugates having very low levels of TFA. While certain methods provide for the synthesis and purification of such conjugates on a gram scale, formation of a lyso- version of the conjugates has been observed upon storage of lyophilized material at 5°C or upon storage of aqueous solutions of the conjugates. It is believed that the lyso- compound is formed by TFA-promoted acid hydrolysis of one of the phospholipid fatty acid esters in dimer peptide-phospholipid conjugates.
# Materials used and conditions for the analytical HPLC system include the following: Column: Zorbax 300SB C-3; 3 mm i.d. x 150 mm; 3.5 µm particle; Eluent A : H2O (HPLC Grade with 0.1% TFA by volume); Eluent B: CH3CN (0.1% TFA by volume). Elution: Initial condition: 50% B then a linear gradient of 50-90% B over 3 min, hold at 90% B for 11 min; Flow rate: 0.5 mL/min; Detection: UV at 220 nm. Ret. time: (Compound (21)): 6.77 min, Rt (lyso): 4.06 min.
# The fractions that contained (21) were combined and lyophilized to give a white fluffy solid. This was dissolved in water-acetonitrile, then lyophilized again. This provided 70 mg product devoid of the lyso- compound. The recovery was about 70%. After chromatography was completed, the system was washed with 95% B for 15 min at a flow rate of 30 mL/min. […]
# [5] = target: Full-length KDR on transfected 293H cells (UniProt P35968); experiment: static binding of targeted microbubbles (DPPE/DPPG envelope) on KDR-transfected 293H cells minus mock-transfected cells
# [6] = target: Full-length KDR on transfected 293H cells (UniProt P35968); experiment: static binding of targeted microbubbles (DSPC/DPPG envelope) on KDR-transfected 293H cells, 50% human plasma, microscopy
# [7] = target: Full-length KDR on transfected 293H cells (UniProt P35968); experiment: static binding of targeted microbubbles (DSPC/DPPG envelope) on KDR-transfected 293H cells minus mock-transfected cells
# [8] = target: Full-length KDR on transfected 293H cells (UniProt P35968); experiment: static binding of targeted microbubbles (DPPE/DPPG envelope) on KDR-transfected 293H cells, 50% human plasma, microscopy
# UniProt P35968, sequence (P35968 20-1356 limits assumed): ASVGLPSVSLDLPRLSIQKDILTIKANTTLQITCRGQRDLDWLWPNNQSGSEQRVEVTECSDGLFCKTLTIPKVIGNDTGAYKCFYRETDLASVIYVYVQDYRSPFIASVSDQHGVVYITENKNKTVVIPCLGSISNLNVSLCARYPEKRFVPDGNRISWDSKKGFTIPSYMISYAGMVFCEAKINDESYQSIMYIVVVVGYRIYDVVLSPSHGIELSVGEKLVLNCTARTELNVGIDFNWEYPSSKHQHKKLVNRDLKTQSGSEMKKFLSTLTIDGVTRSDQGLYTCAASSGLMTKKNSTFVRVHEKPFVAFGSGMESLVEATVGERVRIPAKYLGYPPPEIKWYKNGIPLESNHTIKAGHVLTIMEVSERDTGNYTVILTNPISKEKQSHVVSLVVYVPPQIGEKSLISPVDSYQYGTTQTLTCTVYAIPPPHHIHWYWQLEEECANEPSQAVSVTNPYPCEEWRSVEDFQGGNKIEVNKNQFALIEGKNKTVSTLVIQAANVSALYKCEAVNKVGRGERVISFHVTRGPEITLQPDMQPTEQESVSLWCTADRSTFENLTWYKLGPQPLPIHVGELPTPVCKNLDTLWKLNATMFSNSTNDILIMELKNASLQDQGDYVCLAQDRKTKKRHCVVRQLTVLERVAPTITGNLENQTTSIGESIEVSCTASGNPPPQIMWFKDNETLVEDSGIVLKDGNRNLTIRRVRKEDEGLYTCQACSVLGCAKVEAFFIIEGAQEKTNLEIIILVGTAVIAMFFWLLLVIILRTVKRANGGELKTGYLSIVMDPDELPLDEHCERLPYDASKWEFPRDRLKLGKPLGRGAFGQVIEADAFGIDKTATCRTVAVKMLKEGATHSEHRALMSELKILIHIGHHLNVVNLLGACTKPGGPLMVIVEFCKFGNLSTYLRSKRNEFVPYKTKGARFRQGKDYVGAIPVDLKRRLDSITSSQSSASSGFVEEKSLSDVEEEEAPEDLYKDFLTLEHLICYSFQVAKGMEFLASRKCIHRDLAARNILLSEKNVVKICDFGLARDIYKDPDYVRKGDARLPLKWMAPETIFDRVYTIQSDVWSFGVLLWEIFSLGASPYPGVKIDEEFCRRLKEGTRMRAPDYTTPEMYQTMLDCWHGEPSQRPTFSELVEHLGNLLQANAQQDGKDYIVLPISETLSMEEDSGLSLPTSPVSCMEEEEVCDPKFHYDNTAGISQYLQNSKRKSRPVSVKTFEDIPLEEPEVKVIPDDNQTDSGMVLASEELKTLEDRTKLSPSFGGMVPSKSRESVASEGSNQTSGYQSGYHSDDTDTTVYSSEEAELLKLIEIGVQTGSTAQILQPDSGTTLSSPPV
molecule,measurement,setting,value
Ac-AQDWYYDEILSMADQLRHAFLSGGGGGK-NH2 [(32)],binding affinity to KDR,KDR [1],high affinity
Ac-AQDWYYDEILSMADQLRHAFLSGGGGGK(DSPE-PEG2000-NH-Glut)-NH2 [(31)],KDR binding of gas filled microbubbles formulated with the conjugate,[2],high KDR binding
"Ac-RAQDWYYDEILSMADQLRHAFLSGGGGGK(DSPE-PEG2000-NH-Glut)-NH2 (not fully specified; N-acetyl, C-amide, DSPE-PEG2000-NH-Glut lipid conjugate) [(1)]",KDR binding of gas filled microbubbles formulated with the conjugate,[2],high KDR binding
CC[C@H](C)[C@H](NC(=O)[C@H](CCC(=O)O)NC(=O)[C@H](CC(=O)O)NC(=O)[C@H](Cc1ccc(O)cc1)NC(=O)[C@H](Cc1ccc(O)cc1)NC(=O)[C@H](Cc1c[nH]c2ccccc12)NC(=O)[C@H](CC(=O)O)NC(=O)[C@H](CCC(N)=O)NC(=O)[C@H](C)NC(=O)[C@H](CCCNC(=N)N)NC(C)=O)C(=O)N[C@@H](CC(C)C)C(=O)N[C@@H](CO)C(=O)N[C@@H](CCSC)C(=O)N[C@@H](C)C(=O)N[C@@H](CC(=O)O)C(=O)N[C@@H](CCC(N)=O)C(=O)N[C@@H](CC(C)C)C(=O)N[C@@H](CCCNC(=N)N)C(=O)N[C@@H](Cc1c[nH]cn1)C(=O)N[C@@H](C)C(=O)N[C@@H](Cc1ccccc1)C(=O)N[C@@H](CC(C)C)C(=O)N[C@@H](CO)C(=O)NCC(=O)NCC(=O)NCC(=O)NCC(=O)NCC(=O)N[C@@H](CCCCN)C(N)=O [(2)],binding affinity to KDR,KDR [3],high affinity
Ac-AGPTWCEDDWYYCWLFGTGGGK{Ac-VCWEDSWGGEVCFRYDPGGGK[-Adoa-Adoa-Glut-K(DSPE-PEG2000-NH-Glut)]-NH2 cyclic (2-12) disulfide}-NH2 cyclic (6-13) disulfide [(21)],formation of lyso- compound,[4],no lyso- compound formed
Ac-AGPTWCEDDWYYCWLFGTGGGK{Ac-VCWEDSWGGEVCFRYDP-GGGK[-Adoa-Adoa-Glut-K(DSPE-PEG2000-NH-Glut)]-NH2 cyclic (2-12) disulfide}-NH2 cyclic (6-13) disulfide [(11)],KDR binding of gas filled microbubbles formulated with the conjugate,[2],high KDR binding
Ac-AQDWYYDEILSMADQLRHAFLSGGGGGK([Glutaryl-PEG2000-DSPE])-NH2 [monomeric peptide phospholipid conjugate (31)],% of surface covered by bound microbubbles (KDR-Mock),[5],23.5%
same,% of surface covered by bound microbubbles (KDR),[6],28%
same,% of surface covered by bound microbubbles (KDR-Mock),[7],27.7%
same,% of surface covered by bound microbubbles (KDR),[8],23.6%
